Data taken from publication PMC3796470, “BdorCSP2 Is Important for Antifeed and Oviposition-Deterring Activities Induced by Rhodojaponin-III against Bactrocera dorsalis” (PLoS ONE, 2013).

Key:
[1] = biological target: T1, BdorCSP2 (Bactrocera dorsalis, UniProt S5TKX2); assay: competitive fluorescence binding assay, displacement of 1-NPN
T1 construct: gene CSP2; mature BdorCSP2 (signal peptide removed), recombinant from E. coli BL21 (DE3), His-tag-removed; GenBank KC897022
T1 sequence (S5TKX2 23-156): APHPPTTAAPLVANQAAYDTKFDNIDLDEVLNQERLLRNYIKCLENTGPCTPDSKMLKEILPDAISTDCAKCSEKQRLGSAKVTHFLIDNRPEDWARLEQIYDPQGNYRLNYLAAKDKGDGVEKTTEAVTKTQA

[2] = biological target: T1, BdorCSP2; assay: fluorescent probe titration with Scatchard analysis; type: binding

| SMILES | Kd [1] | Kd [2] |
| --- | --- | --- |
| CC1(C)[C@H]2O[C@H]2[C@H]2[C@](C)(O)[C@@H]3CC[C@@H]4[C@@H](O)[C@@]3(C[C@@H](O)[C@@]21O)C[C@@]4(C)O [Rhodojaponin-III] | 34.6 µM | – |
| c1ccc(Nc2cccc3ccccc23)cc1 [N-phenyl-1-naphthylamine] | – | 2.71 µM |
